Reference: ChEMBL document CHEMBL1909046, “DrugMatrix in vitro pharmacology data”
pIC50, pKi: −log10 of the molar value.

Experiments:
[1] = DRUGMATRIX: Calcium Channel Type L, Benzothiazepine radioligand binding (ligand: [3H] Diltiazem); type: cell membranes, Rattus norvegicus, Wistar, Brain, Membrane; settings: Not Active = under 50% inhibition at 10 µM; for pIC50: read-out: IC50; for pKi: read-out: Ki
[2] = DRUGMATRIX: Serotonin (5-Hydroxytryptamine) 5-HT3 radioligand binding (ligand: [3H] GR-65630); type: cell membranes, Membrane; settings: hek293; Not Active = under 50% inhibition at 10 µM
[3] = biological target: T1, C-X-C chemokine receptor type 1 (Homo sapiens, UniProt P25024); further: in other assays of this panel Not Active means under 50% inhibition at 10 µM
T1 sequence (P25024 whole entry): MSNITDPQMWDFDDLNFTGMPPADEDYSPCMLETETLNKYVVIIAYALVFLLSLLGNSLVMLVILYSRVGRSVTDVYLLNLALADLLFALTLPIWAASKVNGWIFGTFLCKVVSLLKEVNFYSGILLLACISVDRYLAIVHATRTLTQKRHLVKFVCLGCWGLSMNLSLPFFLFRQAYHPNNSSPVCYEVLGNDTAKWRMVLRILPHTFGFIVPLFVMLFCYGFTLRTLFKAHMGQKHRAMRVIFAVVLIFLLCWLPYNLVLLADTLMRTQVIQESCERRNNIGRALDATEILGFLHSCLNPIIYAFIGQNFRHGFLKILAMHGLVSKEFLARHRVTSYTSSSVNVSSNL

[4] = biological target: T2, Cholecystokinin receptor type A (Homo sapiens, UniProt P32238); type: cell membranes, Membrane; settings: 1321-n1; further: in other assays of this panel Not Active means under 50% inhibition at 10 µM
T2 sequence (P32238 whole entry): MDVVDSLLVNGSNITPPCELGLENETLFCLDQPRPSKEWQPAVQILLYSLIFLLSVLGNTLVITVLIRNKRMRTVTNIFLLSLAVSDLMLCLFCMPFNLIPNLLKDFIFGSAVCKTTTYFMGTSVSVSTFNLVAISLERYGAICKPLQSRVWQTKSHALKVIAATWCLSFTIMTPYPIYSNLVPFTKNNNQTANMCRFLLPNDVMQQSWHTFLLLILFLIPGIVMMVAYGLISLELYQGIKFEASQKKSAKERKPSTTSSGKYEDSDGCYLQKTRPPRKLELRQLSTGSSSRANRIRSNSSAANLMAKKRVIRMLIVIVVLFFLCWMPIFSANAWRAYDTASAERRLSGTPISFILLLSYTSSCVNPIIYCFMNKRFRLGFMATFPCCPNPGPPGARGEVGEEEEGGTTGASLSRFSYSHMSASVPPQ

[5] = DRUGMATRIX: Glutamate, NMDA, Agonism radioligand binding (ligand: [3H] CGP-39653); type: cell membranes, Rattus norvegicus, Wistar, Cerebral cortex, Membrane; settings: Not Active = under 50% inhibition at 10 µM
[6] = DRUGMATRIX: Imidazoline I2, Central radioligand binding (ligand: [3H] Idazoxan); type: cell membranes, Rattus norvegicus, Wistar, Cerebral cortex, Membrane; settings: Not Active = under 50% inhibition at 10 µM
[7] = DRUGMATRIX: Nicotinic Acetylcholine radioligand binding (ligand: [125I] Epibatidine); type: cell membranes, Membrane; settings: imr-32; Not Active = under 50% inhibition at 10 µM
[8] = DRUGMATRIX: Phorbol Ester radioligand binding (ligand: [3H] PDBu); type: cell membranes, Mus musculus, ICR, Brain, Membrane; settings: Not Active = under 50% inhibition at 10 µM
[9] = biological target: Epidermal growth factor receptor (Homo sapiens, UniProt P00533); assay: DRUGMATRIX: Protein Tyrosine Kinase, EGF Receptor enzyme inhibition (substrate: Poly(Glu:Tyr)); type: cell-based, Insect cells; settings: insect cells; Not Active = under 50% inhibition at 10 µM
Cytochrome P450 1A2 = biological target: T3, Cytochrome P450 1A2 (Homo sapiens, UniProt P05177); settings: bti-tn-5b1-4; further: in other assays of this panel Not Active means under 50% inhibition at 10 µM
T3 sequence (P05177 whole entry): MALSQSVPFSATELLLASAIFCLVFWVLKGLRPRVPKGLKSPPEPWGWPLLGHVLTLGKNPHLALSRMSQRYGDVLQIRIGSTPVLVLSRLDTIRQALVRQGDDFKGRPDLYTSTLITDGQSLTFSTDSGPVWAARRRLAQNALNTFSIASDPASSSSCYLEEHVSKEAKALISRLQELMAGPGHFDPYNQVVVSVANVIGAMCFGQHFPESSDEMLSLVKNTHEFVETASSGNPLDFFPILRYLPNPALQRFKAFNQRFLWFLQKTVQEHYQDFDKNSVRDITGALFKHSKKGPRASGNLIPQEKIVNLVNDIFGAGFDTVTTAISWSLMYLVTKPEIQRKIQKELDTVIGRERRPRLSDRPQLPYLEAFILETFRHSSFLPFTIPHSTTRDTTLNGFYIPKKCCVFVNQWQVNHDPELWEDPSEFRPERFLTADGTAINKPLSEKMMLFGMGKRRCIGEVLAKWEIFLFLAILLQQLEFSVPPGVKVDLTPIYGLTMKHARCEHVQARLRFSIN

Epidermal growth factor receptor, sequence (P00533 whole entry): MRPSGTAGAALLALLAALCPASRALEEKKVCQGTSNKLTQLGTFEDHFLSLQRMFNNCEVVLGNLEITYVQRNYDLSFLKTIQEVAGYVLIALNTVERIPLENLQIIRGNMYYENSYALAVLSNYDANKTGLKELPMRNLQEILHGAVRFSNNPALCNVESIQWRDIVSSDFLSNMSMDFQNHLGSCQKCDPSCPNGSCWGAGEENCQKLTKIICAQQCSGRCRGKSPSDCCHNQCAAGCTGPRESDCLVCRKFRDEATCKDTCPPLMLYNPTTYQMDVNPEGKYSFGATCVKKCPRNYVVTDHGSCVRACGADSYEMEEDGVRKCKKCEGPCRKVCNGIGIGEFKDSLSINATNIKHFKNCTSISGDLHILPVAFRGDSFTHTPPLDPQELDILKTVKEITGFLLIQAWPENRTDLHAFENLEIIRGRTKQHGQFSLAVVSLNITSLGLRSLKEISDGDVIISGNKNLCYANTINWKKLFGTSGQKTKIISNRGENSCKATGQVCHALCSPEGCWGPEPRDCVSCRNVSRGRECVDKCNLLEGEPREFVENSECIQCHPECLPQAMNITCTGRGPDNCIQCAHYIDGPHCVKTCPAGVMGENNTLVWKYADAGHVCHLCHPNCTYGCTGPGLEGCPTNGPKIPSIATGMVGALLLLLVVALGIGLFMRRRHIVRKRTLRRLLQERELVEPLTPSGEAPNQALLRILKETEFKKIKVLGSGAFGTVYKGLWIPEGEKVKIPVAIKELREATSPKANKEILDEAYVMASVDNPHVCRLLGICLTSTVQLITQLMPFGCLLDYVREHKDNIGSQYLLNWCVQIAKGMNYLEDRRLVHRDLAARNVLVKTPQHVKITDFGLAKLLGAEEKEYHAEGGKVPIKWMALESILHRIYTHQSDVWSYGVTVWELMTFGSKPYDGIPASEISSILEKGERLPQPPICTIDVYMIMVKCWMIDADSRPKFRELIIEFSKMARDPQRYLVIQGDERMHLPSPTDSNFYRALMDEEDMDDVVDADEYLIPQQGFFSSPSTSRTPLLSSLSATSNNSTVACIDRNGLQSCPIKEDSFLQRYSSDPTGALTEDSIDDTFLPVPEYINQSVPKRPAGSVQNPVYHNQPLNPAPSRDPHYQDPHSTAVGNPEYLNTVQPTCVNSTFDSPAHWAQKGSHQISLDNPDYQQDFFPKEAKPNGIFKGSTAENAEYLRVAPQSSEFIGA

## Cc1cc(C)nc(NS(=O)(=O)c2ccc(N)cc2)n1 [SULFAMETHAZINE]
[1]
  IC50: Not Active
  Ki: Not Active
[2]
  IC50: Not Active
  Ki: Not Active
[3]
  IC50: Not Active
[4]
  IC50: Not Active
[5]
  IC50: Not Active
  Ki: Not Active
[6]
  IC50: Not Active
  Ki: Not Active
[7]
  IC50: Not Active
  Ki: Not Active
[8]
  IC50: Not Active
  Ki: Not Active
[9]
  IC50: Not Active
Cytochrome P450 1A2
  IC50: Not Active
  Ki: Not Active

## CN1CCC(=C2c3ccccc3C=Cc3ccccc32)CC1 [CYPROHEPTADINE]
[3]
  IC50: Not Active
[4]
  IC50: Not Active
[9]
  IC50: Not Active
Cytochrome P450 1A2
  IC50: Not Active
  Ki: Not Active

## CNC(=C[N+](=O)[O-])NCCSCc1ccc(CN(C)C)o1 [RANITIDINE]
[1]
  IC50: Not Active
  Ki: Not Active
[2]
  IC50: Not Active
  Ki: Not Active
[3]
  IC50: Not Active
[4]
  IC50: Not Active
[5]
  IC50: Not Active
  Ki: Not Active
[6]
  IC50: Not Active
  Ki: Not Active
[7]
  IC50: Not Active
  Ki: Not Active
[8]
  IC50: Not Active
  Ki: Not Active
[9]
  IC50: Not Active
Cytochrome P450 1A2
  IC50: Not Active
  Ki: Not Active

## CC(=O)N1CCN(c2ccc(OCC3COC(Cn4ccnc4)(c4ccc(Cl)cc4Cl)O3)cc2)CC1 (stereo unspecified) [KETOCONAZOLE]
[1]
  pIC50: 4.49
  pKi: 4.55
[2]
  IC50: Not Active
  Ki: Not Active
[3]
  IC50: Not Active
[4]
  IC50: Not Active
[5]
  IC50: Not Active
  Ki: Not Active
[6]
  IC50: Not Active
  Ki: Not Active
[7]
  IC50: Not Active
  Ki: Not Active
[8]
  IC50: Not Active
  Ki: Not Active
[9]
  IC50: Not Active
Cytochrome P450 1A2
  IC50: Not Active
  Ki: Not Active

## CC/C(=C(/CC)c1ccc(O)cc1)c1ccc(O)cc1 [DIETHYLSTILBESTROL]
[3]
  IC50: Not Active
[4]
  IC50: Not Active
[9]
  IC50: Not Active
Cytochrome P450 1A2
  IC50: Not Active
  Ki: Not Active

## COCCOC(=O)C1=C(C)NC(C)=C(C(=O)OC(C)C)C1c1cccc([N+](=O)[O-])c1 (stereo unspecified) [NIMODIPINE]
[1]
  pIC50: 8.68
  pKi: 8.73
[2]
  IC50: Not Active
  Ki: Not Active
[3]
  IC50: Not Active
[4]
  IC50: Not Active
[5]
  IC50: Not Active
  Ki: Not Active
[6]
  IC50: Not Active
  Ki: Not Active
[7]
  IC50: Not Active
  Ki: Not Active
[8]
  IC50: Not Active
  Ki: Not Active
[9]
  IC50: Not Active

## C=CCN1CC[C@]23c4c5ccc(O)c4O[C@H]2C(=O)CC[C@@]3(O)[C@H]1C5 [NALOXONE]
[3]
  IC50: Not Active
[4]
  IC50: Not Active
[9]
  IC50: Not Active

## CC(C)NCC(O)COc1cccc2ccccc12 (stereo unspecified) [PROPRANOLOL]
[3]
  IC50: Not Active
[4]
  IC50: Not Active
[9]
  IC50: Not Active

## CC(C)c1nc(CN(C)C(=O)N[C@H](C(=O)N[C@@H](Cc2ccccc2)C[C@H](O)[C@H](Cc2ccccc2)NC(=O)OCc2cncs2)C(C)C)cs1 [RITONAVIR]
[1]
  IC50: Not Active
  Ki: Not Active
[2]
  IC50: Not Active
  Ki: Not Active
[3]
  IC50: Not Active
[4]
  IC50: Not Active
[5]
  IC50: Not Active
  Ki: Not Active
[6]
  IC50: Not Active
  Ki: Not Active
[7]
  IC50: Not Active
  Ki: Not Active
[8]
  IC50: Not Active
  Ki: Not Active
[9]
  IC50: Not Active

## Clc1ccc2c(c1)C(N1CCNCC1)=Nc1ccccc1O2 [AMOXAPINE]
[3]
  IC50: Not Active
[4]
  IC50: Not Active
[9]
  IC50: Not Active
Cytochrome P450 1A2
  IC50: Not Active
  Ki: Not Active

## COc1cc2c(c(OC)c1OC)-c1ccc(OC)c(=O)cc1[C@@H](NC(C)=O)CC2 [COLCHICINE]
[3]
  IC50: Not Active
[4]
  IC50: Not Active
[9]
  IC50: Not Active

## C[C@@H](N)[C@H]1CC[C@H](C(=O)Nc2ccncc2)CC1 [Y-27632]
[1]
  IC50: Not Active
  Ki: Not Active
[2]
  IC50: Not Active
  Ki: Not Active
[3]
  IC50: Not Active
[4]
  IC50: Not Active
[5]
  IC50: Not Active
  Ki: Not Active
[6]
  IC50: Not Active
  Ki: Not Active
[7]
  IC50: Not Active
  Ki: Not Active
[8]
  IC50: Not Active
  Ki: Not Active
Cytochrome P450 1A2
  IC50: Not Active
  Ki: Not Active
